The source made the active and inactive calls. The rule behind the calls is not given here.

The target of test [1] is T1, Amine oxidase [flavin-containing] A (Homo sapiens, UniProt P21397).
T1 sequence (P21397 whole entry): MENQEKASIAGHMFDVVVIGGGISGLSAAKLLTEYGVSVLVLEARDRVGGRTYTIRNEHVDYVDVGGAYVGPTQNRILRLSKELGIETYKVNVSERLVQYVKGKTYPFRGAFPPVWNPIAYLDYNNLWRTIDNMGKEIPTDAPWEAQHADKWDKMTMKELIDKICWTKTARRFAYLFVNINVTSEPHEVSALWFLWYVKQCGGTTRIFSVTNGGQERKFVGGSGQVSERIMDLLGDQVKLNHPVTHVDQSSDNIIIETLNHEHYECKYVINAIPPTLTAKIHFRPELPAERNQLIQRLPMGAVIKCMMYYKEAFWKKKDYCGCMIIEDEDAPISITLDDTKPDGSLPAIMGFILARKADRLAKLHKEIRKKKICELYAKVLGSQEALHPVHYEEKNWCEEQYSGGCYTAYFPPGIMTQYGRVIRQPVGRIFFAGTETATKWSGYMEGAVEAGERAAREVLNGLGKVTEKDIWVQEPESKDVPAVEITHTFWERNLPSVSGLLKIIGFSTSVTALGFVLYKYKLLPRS

Test [2] deals with T2, Amine oxidase [flavin-containing] B (Homo sapiens, UniProt P27338).
T2 sequence (P27338 whole entry): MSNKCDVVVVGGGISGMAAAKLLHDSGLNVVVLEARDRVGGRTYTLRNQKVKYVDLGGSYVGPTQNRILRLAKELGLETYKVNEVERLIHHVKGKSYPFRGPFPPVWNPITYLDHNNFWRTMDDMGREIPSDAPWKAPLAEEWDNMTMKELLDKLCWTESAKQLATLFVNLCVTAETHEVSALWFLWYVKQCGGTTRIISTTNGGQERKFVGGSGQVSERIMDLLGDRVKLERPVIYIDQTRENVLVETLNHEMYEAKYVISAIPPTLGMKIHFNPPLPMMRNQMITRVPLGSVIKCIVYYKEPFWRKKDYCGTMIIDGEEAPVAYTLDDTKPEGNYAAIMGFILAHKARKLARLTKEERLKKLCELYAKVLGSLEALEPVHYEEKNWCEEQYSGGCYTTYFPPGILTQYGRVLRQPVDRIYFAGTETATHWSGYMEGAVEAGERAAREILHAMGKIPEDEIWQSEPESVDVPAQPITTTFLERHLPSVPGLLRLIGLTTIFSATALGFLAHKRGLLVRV

In test [3] the target is Lysine-specific histone demethylase 1A (Homo sapiens) (UniProt O60341).
The target is the same in test [4]. Briefly: Inhibition of LSD1 in human MGC803 cells assessed as elevation of E-cadherin protein expression at 0.02 to 1 uM after 48 hrs by Western blotting analysis relative to control. The class given is cell-based. As to conditions: MGC-803. For orientation: Immunoblotting shows a protein as a band on a membrane.
Test [5] has the same target. Briefly: Inhibition of LSD1-snail interaction in human MGC803 cells at 0.25 uM after 48 hrs by immunoprecipitation assay. As to conditions: MGC-803. The class given is cell-based.
For test [6] the target is unchanged. As to conditions: 0.5 to […].
The target is the same in test [7]. As to conditions: 312.5 uM.
Test [8] shares this target. As to conditions: 0.5 to […]. The source holds these as a separate data set.
Test [9] shares this target. As to conditions: 0.5 to […]. The source holds these as a separate data set.
The target is the same in test [10]. This is another data set of the same source.

One may read the IC50 as the concentration that inhibits the measured activity by half. Regarding `CC(C)(C)OC(=O)N1CCN(C(=S)SCc2cn(Cc3ccccc3F)nn2)CC1`, the IC50 in test [1] is greater than 1250 µM; in [2], 791 µM.
Regarding `Cc1ccc(Cn2cc(CSC(=S)N3CCN(C(=O)OC(C)(C)C)CC3)nn2)cc1`, the inhibition result in test [3], in test [4], in [5], in test [6], in [7] and in test [8] was “Active” throughout. Moreover, the inhibition result in [9] and in test [10] was “Active” in each case. Besides, the IC50 in test [1] and in test [2] was greater than 1250 µM throughout.

(Values after ChEMBL document CHEMBL2440118, “Triazole-dithiocarbamate based selective lysine specific demethylase 1 (LSD1) inactivators inhibit gastric cancer cell growth, invasion, and migration” (J Med Chem, 2013).)
